Assay [1] has as its system 7 day old and 21 day old rats. The assay is described as follows: ethanol withdrawal thermal hyperalgesia testing (paw withdrawal latency). Type of assay: in vivo, rat. To be noted: 7 day old rats; intrathecally 4 hours after 4 g/kg 15% EtOH.
In the next assay the target is T1, γPKC (Rattus norvegicus, UniProt P63319).
T1 construct: from tissue; host or cells: lumbar spinal cord slices of postnatal day 7-10 Sprague-Dawley rats
Type of assay: cell-based. On the procedure: Fluorescence immunocytochemical studies were performed on the spinal cord sections, as described in Example 3. The sections were incubated with an anti-γPKC antibody and an anti-neuronal antibody to identify neurons. […] Translocation of γPKC was quantified by counting the number of cells with γPKC localized to the nucleus before (control) and after application of ethanol, as well as after washing with artificial cerebrospinal fluid. […] Two to three sections per animal were counted.
Fluorescence immunocytochemical studies were performed on spinal cord sections […] from control slices (perfused with ACSF for 70 minutes) and EtOH treated slices (perfused with ACSF for 30 minutes followed by 20 min 100 mM EtOH and 20 min wash with ACSF). The sections were incubated with a rabbit anti-PKCg polyclonal antibody (1:500) overnight at 4° C. In some cord sections, a mouse anti-neuronal nuclei monoclonal antibody (NeuN, 1:750) was added to identify neurons. After several washes with ACSF, the sections were labeled for 2 hours at room temperature with fluorescein-labeled secondary antibodies (1:500). Double immunofluorescence was assessed with a laser confocal microscope.

In a further assay the test system is isolated spinal cords. Put plainly: slow ventral root potential (sVRP) of isolated spinal cord, naloxone-precipitated morphine withdrawal hyperresponsiveness. Type of assay: cell-based, rat. An excerpt: The slow ventral root potential (sVRP) is an electrophysiolgical measurement of nociceptive-related response in the spinal cord lasting approximately 40 seconds (Yanagisawa et al., Eur. J. Pharmacol., 106:231-239 (1984); Akagi H. et al., British J. Pharmacol., 84:663-673 (1985); Otsuka M. et al., J. Physiol., 395:255-270 (1988)). It is evoked by stimulation of a lumbar dorsal root at an intensity sufficient to activate small diameter afferents that transmit nociceptive (painful) stimuli from the periphery to the spinal cord (Lozier A. P. et al., J. Neurophysiol., 74:1001-1009 (1995)). […] Thus, the sVRP is related to pain, and its exaggeration following naloxone is a manifestation of withdrawal which translates to an increase in pain sensation in vivo.
Spinal cords from 4-7 day old rats (Charles River Laboratories) were removed and arranged for electrophysiological recording of the slow ventral root potentials (sVRP) (Woodley S. J., et al., Brain Res., 559:17-21 (1991). Briefly, pups were decapitated under halothane anesthesia and the spinal cord removed to an oxygenated artificial cerebrospinal fluid solution. A suction stimulating electrode was placed on a lumbar dorsal root and a suction recording electrode on the corresponding ipsilateral ventral root. Square wave stimuli 0.2 ms in duration were administered at a constant frequency of 1/50 seconds throughout the experiment. Test agents were applied and the responses were recorded, digitized, and area under the curve measured.
After a baseline reading of the sVRP, morphine (200 nM) was applied to the isolated spinal cords. The sVRP was again recorded to characterize the response to morphine. Naloxone (200 nM) was then applied and the sVRPs recorded.
FIGS. 2A-2D show the results after application of non-specific PKC antagonist, GF109203X (1.2 μM), and of an inhibitor specific to Ca++-dependent PKC isoforms, Go6976 (1 μM).
FIGS. 3A-3B show the results after application of the εPCK antagonist (εV1-2; SEQ ID NO:1, 2 nM), conjugated to a peptide carrier (Tat; SEQ ID NO:3) and the Tat peptide alone (2 nM; SEQ ID NO:3). FIGS. 3C-3D show the results after application of γPKC (γV5-3; SEQ ID NO:2, 4 nM) conjugated to a peptide carrier (Tat; SEQ ID NO:3) and of the Tat peptide alone (4 nm; SEQ ID NO:3).

A further assay has as its system postnatal day 7 rats. The assay is described as follows: natural morphine withdrawal, mechanical allodynia and thermal hyperalgesia in vivo. More on the design: species or system rat. To be noted: 10 μM intrathecally 2.5 hours after morphine 1 mg/kg; p<0.05 versus Tat carrier or saline. Here is the method: Another study was performed to investigate the roles of PKC isozymes in natural withdrawal, which more closely resembles the clinical setting in addictive sequela. In this study, postnatal day 7 rats were given a single injection of morphine (1 mg/kg) and allowed to undergo natural withdrawal, i.e., naloxone was not administered to precipitate withdrawal. The treatment protocol is shown in FIG. 6A, where 2.5 hours after morphine delivery, εV1-2 or γV5-3 peptide inhibitors were administered intrathecally. Mechanical allodynia and thermal hyperalgesia were evaluated at hourly intervals according to the procedure described in Example 2.
To measure mechanical thresholds, rats were placed on an elevated wire mesh (2 mm openings). Von Frey hairs (Stoelting Co., WoodDale, Ill., USA) were used to elicit a cutaneous flexion withdrawal response as described by Fitzgerald et al. (Fitzgerald M., et al., PAIN […] INFANTS, CHILDREN AND ADOLESCENTS; Schetchter and Yaster, Eds., pp 11-32, Williams and Williams (Baltimore, Md.) (1993). Von Frey hairs of increasing intensity were applied three times to the plantar surface of the left hind paw until a paw withdrawal was elicited. The lowest intensity Von Frey hair required to produce a withdrawal reflex was recorded as the response threshold to a low-intensity mechanical stimulus. […]

Assay [2] concerns 7 day old and 21 day old rats. Put plainly: ethanol withdrawal mechanical allodynia testing (von Frey threshold withdrawal force). Type of assay: in vivo, rat.

Ends that are not written are not given here.

Turning to “RLVLAS (also: Tat peptide conjugate; listed as Homo sapiens) [γV5-3]”, the “thermal hyperalgesia, paw withdrawal latency” value in assay [1] was “completely prevented thermal hyperalgesia”. In addition, the “number of cells having γPKC localized in the nucleus” value with γPKC (peptide applied 20 minutes prior to ethanol) was “about 14”. Also, in the assay with γPKC (peptide applied prior to ethanol exposure), the “block of γPKC translocation to the cytoplasm” value was “effective to block γPKC translocation to the cytoplasm”. Also, the “effect on sVRP of inhibitor alone” value in the assay with isolated spinal cords (absence of morphine) was “did not significantly altered the sVRP”. Besides, in the assay on isolated spinal cords (morphine 200 nM then naloxone 200 nM, GF109203X 1.2 μM, Go6976 1 μM, εV1-2 2 nM, γV5-3 4 nM, Tat 2-4 nM), the “block of naloxone-precipitated withdrawal hyperresponsiveness of sVRP” value is on record as “reduced withdrawal hyperresponsiveness, but not to a significantly greater amount than the Tat carrier vehicle alone”. For the same substance, in the assay on postnatal day 7 rats, the “mechanical allodynia and thermal hyperalgesia during natural withdrawal from morphine” value was “attenuated mechanical allodynia and thermal hyperalgesia”. In addition, the “mechanical allodynia, threshold withdrawal force” value in assay [2] (7 day old rats, 5 μL of 20 μM intrathecally 5 hours after 4 g/kg 15% EtOH i.p., 6 and 7 hour post-EtOH, versus Tat carrier) is given as “attenuated mechanical allodynia”. Moreover, the “mechanical allodynia, threshold withdrawal response” value in assay [2] (21 day old rats, 10 μL of 20 μM intrathecally 4 hours after 4 g/kg 15% EtOH i.p.) is “prevented a decrease in threshold withdrawal response”.

The values above are taken from patent US8507440B2, “Protein kinase C peptides for use in withdrawal” (The Board of Trustees of the Leland Stanford Junior …, priority 2002, dated 2013).
